# Experimental data reported in patent US20230085307A1, “PYRIDAZINONE COMPOUND AND HERBICIDE” (NISSAN CHEMICAL CORPORATION, priority 2019, published 2023).
# Tests used:
# [1] = system: barnyard grass; experiment: Test Example 3: herbicidal effect by foliage application, Wagner pot (Table 18, symbol H); type: in vivo, barnyard grass (Echinochloa crus-galli); details: amount of applied herbicide 320 g/ha
# Outline: (§1)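 Plants were sown in alluvial soil held under 0.1–0.5 cm standing water and grown 14 days in a greenhouse at 25–30 °C. An emulsifiable formulation, water-diluted to the set dose, was then sprayed onto the foliage, and effects were scored three weeks later using previously defined criteria.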
# [2] = system: Chinese sprangletop; experiment: Test Example 3: herbicidal effect by foliage application, Wagner pot (Table 18, symbol D); type: in vivo, chinese sprangletop (Leptochloa chinensis); details: amount of applied herbicide 320 g/ha
# Outline: as §1
# [3] = system: rice flat sedge; experiment: Test Example 3: herbicidal effect by foliage application, Wagner pot (Table 18, symbol E); type: in vivo, rice flat sedge (Cyperus iria); details: amount of applied herbicide 320 g/ha
# Outline: as §1
# [4] = system: southern crabgrass; experiment: Test Example 5: herbicidal effect by foliage application, plastic box (Table 20, symbol F); type: in vivo, southern crabgrass (Digitaria ciliaris); details: foliage application; for F: southern crabgrass, herbicidal effect grade: 320 g/ha, three weeks after application
# Outline: (§2)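 Sow seeds spot-wise in sterilized diluvial soil; cover with ~1.5 cm soil. Grow 14 days in greenhouse, 25° C. to 30° C. Spray foliage with emulsion diluted to predetermined amount. Rate effect after 3 weeks.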
# [5] = system: green foxtail; experiment: Test Example 5: herbicidal effect by foliage application, plastic box (Table 20, symbol G); type: in vivo, green foxtail (Setaria viridis); details: foliage application; for G: green foxtail, herbicidal effect grade: 320 g/ha, three weeks after application
# Outline: as §2
# [6] = system: barnyard grass; experiment: Test Example 5: herbicidal effect by foliage application, plastic box (Table 20, symbol H); type: in vivo, barnyard grass (Echinochloa crus-galli); details: foliage application; for H: barnyard grass, herbicidal effect grade: 320 g/ha, three weeks after application
# Outline: as §2
# [7] = system: wild oat; experiment: Test Example 5: herbicidal effect by foliage application, plastic box (Table 20, symbol I); type: in vivo, wild oat (Avena fatua); details: foliage application; for I: wild oat, herbicidal effect grade: 320 g/ha, three weeks after application
# Outline: as §2
# [8] = system: blackgrass; experiment: Test Example 5: herbicidal effect by foliage application, plastic box (Table 20, symbol J); type: in vivo, blackgrass (Alopecurus myosuroides); details: foliage application; for J: blackgrass, herbicidal effect grade: 320 g/ha, three weeks after application
# Outline: as §2
# [9] = system: Italian ryegrass; experiment: Test Example 5: herbicidal effect by foliage application, plastic box (Table 20, symbol K); type: in vivo, Italian ryegrass (Lolium multiflorum); details: foliage application; for K: Italian ryegrass, herbicidal effect grade: 320 g/ha, three weeks after application
# Outline: as §2
# [10] = system: windgrass; experiment: Test Example 5: herbicidal effect by foliage application, plastic box (Table 20, symbol L); type: in vivo, windgrass (Apera spica-venti); details: foliage application; for L: windgrass, herbicidal effect grade: 320 g/ha, three weeks after application
# Outline: as §2
# [11] = system: velvetleaf; experiment: Test Example 5: herbicidal effect by foliage application, plastic box (Table 20, symbol M); type: in vivo, velvetleaf (Abutilon theophrasti); details: foliage application; for M: velvetleaf, herbicidal effect grade: 320 g/ha, three weeks after application
# Outline: as §2
# [12] = system: redroot pigweed; experiment: Test Example 5: herbicidal effect by foliage application, plastic box (Table 20, symbol N); type: in vivo, redroot pigweed (Amaranthus retroflexus); details: foliage application; for N: redroot pigweed, herbicidal effect grade: 320 g/ha, three weeks after application
# Outline: as §2
# [13] = system: lambsquarters; experiment: Test Example 5: herbicidal effect by foliage application, plastic box (Table 20, symbol O); type: in vivo, lambsquarters (Chenopodium album); details: foliage application; for O: lambsquarters, herbicidal effect grade: 320 g/ha, three weeks after application
# Outline: as §2
# [14] = system: chickweed; experiment: Test Example 5: herbicidal effect by foliage application, plastic box (Table 20, symbol P); type: in vivo, common chickweed (Stellaria media); details: foliage application; for P: chickweed, herbicidal effect grade: 320 g/ha, three weeks after application
# Outline: as §2
# [15] = system: persian speedwell; experiment: Test Example 5: herbicidal effect by foliage application, plastic box (Table 20, symbol R); type: in vivo, Persian speedwell (Veronica persica); details: foliage application; for R: persian speedwell, herbicidal effect grade: 320 g/ha, three weeks after application
# Outline: as §2
# [16] = AAH 320 g/ha, evaluated three weeks after application
Compound,herbicidal effect on H: barnyard grass [1],herbicidal effect on D: Chinese sprangletop [2],herbicidal effect on E: rice flat sedge [3],"F: southern crabgrass, herbicidal effect grade [4]","G: green foxtail, herbicidal effect grade [5]","H: barnyard grass, herbicidal effect grade [6]","I: wild oat, herbicidal effect grade [7]","J: blackgrass, herbicidal effect grade [8]","K: Italian ryegrass, herbicidal effect grade [9]","L: windgrass, herbicidal effect grade [10]","M: velvetleaf, herbicidal effect grade [11]","N: redroot pigweed, herbicidal effect grade [12]","O: lambsquarters, herbicidal effect grade [13]","P: chickweed, herbicidal effect grade [14]","R: persian speedwell, herbicidal effect grade [15]",also measured
Cc1nn(C)c(=O)c(-c2c(-c3ccc(OC(F)F)cc3)sc3ccc(F)cc23)c1OC(=O)SC(C)(C)C [2-296],5 (Herbicidal rate of 90% or more (almost completely withered)),2 (Herbicidal rate of 20% or more and less than 40%),3 (Herbicidal rate of 40% or more and less than 70%),,,,,,,,,,,,,"F: southern crabgrass, herbicidal effect (criteria 0-5) [4, 16]: 0 (Herbicidal rate of 5% or less (almost no effect)); G: green foxtail, herbicidal effect (criteria 0-5) [5, 16]: 5 (Herbicidal rate of 90% or more (almost completely withered)); H: barnyard grass, herbicidal effect (criteria 0-5) [6, 16]: 4 (Herbicidal rate of 70% or more and less than 90%); I: wild oat, herbicidal effect (criteria 0-5) [7, 16]: 0 (Herbicidal rate of 5% or less (almost no effect)); J: blackgrass, herbicidal effect (criteria 0-5) [8, 16]: 3 (Herbicidal rate of 40% or more and less than 70%); K: Italian ryegrass, herbicidal effect (criteria 0-5) [9, 16]: 1 (Herbicidal rate of 5% or more and less than 20%); L: windgrass, herbicidal effect (criteria 0-5) [10, 16]: 0 (Herbicidal rate of 5% or less (almost no effect)); M: velvetleaf, herbicidal effect (criteria 0-5) [11, 16]: 5 (Herbicidal rate of 90% or more (almost completely withered)); N: redroot pigweed, herbicidal effect (criteria 0-5) [12, 16]: 5 (Herbicidal rate of 90% or more (almost completely withered)); O: lambsquarters, herbicidal effect (criteria 0-5) [13, 16]: 5 (Herbicidal rate of 90% or more (almost completely withered)); P: chickweed, herbicidal effect (criteria 0-5) [14, 16]: 5 (Herbicidal rate of 90% or more (almost completely withered)); R: persian speedwell, herbicidal effect (criteria 0-5) [15, 16]: 5 (Herbicidal rate of 90% or more (almost completely withered))"
Cc1nn(Cc2ccccc2)c(=O)c(-c2c(-c3ccc(C(F)(F)F)cc3)sc3ccc(F)cc23)c1O [2-436],3 (Herbicidal rate of 40% or more and less than 70%),0 (Herbicidal rate of 5% or less (almost no effect)),2 (Herbicidal rate of 20% or more and less than 40%),0 (Herbicidal rate of 5% or less (almost no effect)),0 (Herbicidal rate of 5% or less (almost no effect)),0 (Herbicidal rate of 5% or less (almost no effect)),0 (Herbicidal rate of 5% or less (almost no effect)),0 (Herbicidal rate of 5% or less (almost no effect)),0 (Herbicidal rate of 5% or less (almost no effect)),0 (Herbicidal rate of 5% or less (almost no effect)),0 (Herbicidal rate of 5% or less (almost no effect)),3 (Herbicidal rate of 40% or more and less than 70%),0 (Herbicidal rate of 5% or less (almost no effect)),0 (Herbicidal rate of 5% or less (almost no effect)),0 (Herbicidal rate of 5% or less (almost no effect)),
COCCOCOc1c(C)nn(C)c(=O)c1-c1c(-c2ccc(Oc3ncc(C(F)(F)F)cc3Cl)cc2)sc2ccc(F)cc12 [2-468],3 (Herbicidal rate of 40% or more and less than 70%),2 (Herbicidal rate of 20% or more and less than 40%),2 (Herbicidal rate of 20% or more and less than 40%),0 (Herbicidal rate of 5% or less (almost no effect)),0 (Herbicidal rate of 5% or less (almost no effect)),5 (Herbicidal rate of 90% or more (almost completely withered)),0 (Herbicidal rate of 5% or less (almost no effect)),0 (Herbicidal rate of 5% or less (almost no effect)),0 (Herbicidal rate of 5% or less (almost no effect)),0 (Herbicidal rate of 5% or less (almost no effect)),0 (Herbicidal rate of 5% or less (almost no effect)),1 (Herbicidal rate of 5% or more and less than 20%),2 (Herbicidal rate of 20% or more and less than 40%),0 (Herbicidal rate of 5% or less (almost no effect)),3 (Herbicidal rate of 40% or more and less than 70%),
